From ChEMBL document CHEMBL5537192, “Specific Inhibitors of Mitochondrial Deacylase Sirtuin 4 Endowed with Cellular Activity” (J Med Chem, 2024)
pIC50: −log10 of the molar value.

Tests used:
[1] = biological target: T1, NAD-dependent protein lipoamidase sirtuin-4, mitochondrial (Homo sapiens, UniProt Q9Y6E7); test: Inhibition of N-terminal 6His-tagged human Sirt4 (25 to 314 residues) expressed in Escherichia coli CodonPlus(DE3) cells using HMG-FdL as substrate at 100 uM preincubated for 20 mins followed by NAM addition and measured after 45 mins in presence of NAD+ by fluorescence based assay relative to control
T1 sequence (Q9Y6E7 whole entry): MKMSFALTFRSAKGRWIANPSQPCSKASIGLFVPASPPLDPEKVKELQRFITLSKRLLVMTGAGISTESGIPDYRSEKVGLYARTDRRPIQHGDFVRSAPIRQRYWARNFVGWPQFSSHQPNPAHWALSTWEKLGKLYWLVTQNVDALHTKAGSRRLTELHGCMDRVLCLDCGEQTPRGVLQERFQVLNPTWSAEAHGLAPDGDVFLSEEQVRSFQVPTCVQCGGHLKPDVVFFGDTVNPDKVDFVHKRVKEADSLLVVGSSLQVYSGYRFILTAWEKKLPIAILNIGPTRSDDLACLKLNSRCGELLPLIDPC

[2] = system: C2C12; test: Cytotoxicity against mouse C2C12 cells assessed as effect o cell viability at 1 to 100 uM incubated for 4 hrs by trypan blue reagent based phase contrast microscopic analysis; assay type: toxicity; details: c2c12, 4 h, dose 1-100 µM

pIC50 [1]	SMILES	Activity [2]
~3.90	NC(=O)C1=CN([C@@H]2O[C@H](COP(=O)(O)OP(=O)(O)OC[C@H]3O[C@@H](n4cnc5c(N)ncnc54)[C@H](O)[C@@H]3O)[C@@H](O)[C@H]2O)C=CC1	
	CCCc1cc(=O)[nH]c(SCC(=O)Nc2ccc(S(=O)(=O)c3ccc([N+](=O)[O-])cc3)cc2)n1	Non-Toxic
